Source: article PMC3424541 (2012)

Target: T1, HsRAD51 (Homo sapiens, UniProt Q06609)
T1 sequence (Q06609 2-339): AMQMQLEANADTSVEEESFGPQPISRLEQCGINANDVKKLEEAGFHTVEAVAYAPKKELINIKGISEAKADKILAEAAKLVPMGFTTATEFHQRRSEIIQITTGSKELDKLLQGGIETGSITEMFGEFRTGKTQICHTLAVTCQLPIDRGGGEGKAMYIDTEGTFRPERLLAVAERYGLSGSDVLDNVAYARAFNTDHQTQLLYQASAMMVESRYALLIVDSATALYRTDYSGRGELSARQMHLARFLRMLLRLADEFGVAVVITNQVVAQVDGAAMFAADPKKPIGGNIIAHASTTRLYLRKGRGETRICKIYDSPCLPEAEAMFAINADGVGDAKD
Assay: LC-MS/MS of the covalent adduct at C319
Format: binding

Compound: O=C1C(Cl)=C(N2CCOCC2)C(=O)N1c1ccc(Cl)c(Cl)c1 [RI-1, 3-chloro-1-(3,4-dichlorophenyl)-4-(4-morpholinyl)-1H-pyrrole-2,5-dione]
- IC50: 5 to 30 µM
